Where “and” joins values, the source holds several entries; their conditions need not be identical. Equal values may be shown once. Numbers after ± are expanded uncertainties.
Conditions: Liquid, Hot wire method

FC(F)CC(F)(F)F [1,1,1,3,3-pentafluoropropane]
Conditions | thermal conductivity
201.86 K, 21419 kPa | 0.124 ± 0.0016 W/m/K
201.86 K, 21433 kPa | 0.1239 ± 0.0016 W/m/K
201.87 K, 27158 kPa | 0.1248 ± 0.0016 W/m/K
202.1 K, 4763 kPa | 0.1206 ± 0.0015 W/m/K
202.12 K, 10088 kPa | 0.1217 ± 0.0015 W/m/K
202.12 K, 10097 kPa | 0.1218 ± 0.0015 W/m/K
202.15 K, 15804 kPa | 0.1229 ± 0.0016 W/m/K
202.15 K, 15839 kPa | 0.1229 ± 0.0016 W/m/K
202.2 K, 267 kPa | 0.1193 ± 0.0015 W/m/K
202.2 K, 275 kPa | 0.1195 ± 0.0015 W/m/K
202.2 K, 21408 kPa | 0.1237 ± 0.0016 W/m/K
202.2 K, 21420 kPa | 0.1237 ± 0.0016 W/m/K
202.21 K, 27161 kPa | 0.1249 ± 0.0016 W/m/K
202.23 K, 27677 kPa | 0.1252 ± 0.0016 W/m/K
202.24 K, 27673 kPa | 0.1255 ± 0.0016 W/m/K
202.24 K, 33666 kPa | 0.1267 ± 0.0016 W/m/K
202.24 K, 33675 kPa | 0.1266 ± 0.0016 W/m/K
202.26 K, 40147 kPa | 0.1279 ± 0.0016 W/m/K
202.26 K, 40151 kPa | 0.1278 ± 0.0016 W/m/K
202.27 K, 46773 kPa | 0.129 ± 0.0016 W/m/K
202.27 K, 46779 kPa | 0.1291 ± 0.0016 W/m/K
202.27 K, 53774 kPa | 0.1304 ± 0.0016 W/m/K
202.28 K, 53774 kPa | 0.1304 ± 0.0016 W/m/K
202.28 K, 60672 kPa | 0.1313 ± 0.0017 W/m/K
202.28 K, 60684 kPa | 0.1319 ± 0.0017 W/m/K
202.29 K, 67566 kPa | 0.1328 ± 0.0017 W/m/K
202.29 K, 67588 kPa | 0.1327 ± 0.0017 W/m/K
202.48 K, 4763 kPa | 0.1205 ± 0.0015 W/m/K
202.49 K, 10097 kPa | 0.1216 ± 0.0015 W/m/K
202.49 K, 10103 kPa | 0.1216 ± 0.0015 W/m/K
202.52 K, 15780 kPa | 0.1229 ± 0.0016 W/m/K
202.52 K, 15825 kPa | 0.1229 ± 0.0016 W/m/K
202.57 K, 21412 kPa | 0.1238 ± 0.0016 W/m/K
202.57 K, 21416 kPa | 0.1237 ± 0.0016 W/m/K
202.57 K, 27164 kPa | 0.1249 ± 0.0016 W/m/K
202.58 K, 275 kPa | 0.1195 ± 0.0015 W/m/K
202.58 K, 288 kPa | 0.1194 ± 0.0015 W/m/K
202.59 K, 27679 kPa | 0.1253 ± 0.0016 W/m/K
202.59 K, 27683 kPa | 0.1253 ± 0.0016 W/m/K
202.59 K, 33679 kPa | 0.1264 ± 0.0016 W/m/K
202.6 K, 33675 kPa | 0.1265 ± 0.0016 W/m/K
202.61 K, 40142 kPa | 0.1278 ± 0.0016 W/m/K
202.62 K, 40147 kPa | 0.1278 ± 0.0016 W/m/K
202.62 K, 46778 kPa | 0.129 ± 0.0016 W/m/K
202.62 K, 46780 kPa | 0.1289 ± 0.0016 W/m/K
202.62 K, 53770 kPa | 0.1302 ± 0.0016 W/m/K and 0.1303 ± 0.0016 W/m/K
202.63 K, 60672 kPa | 0.1318 ± 0.0017 W/m/K
202.63 K, 60673 kPa | 0.1317 ± 0.0017 W/m/K
202.63 K, 67539 kPa | 0.1325 ± 0.0017 W/m/K
202.63 K, 67552 kPa | 0.1327 ± 0.0017 W/m/K
202.89 K, 4767 kPa | 0.1203 ± 0.0015 W/m/K
202.89 K, 4772 kPa | 0.1204 ± 0.0015 W/m/K
202.9 K, 10110 kPa | 0.1216 ± 0.0015 W/m/K
202.92 K, 15810 kPa | 0.1227 ± 0.0016 W/m/K
202.92 K, 15863 kPa | 0.1227 ± 0.0016 W/m/K
202.97 K, 21416 kPa | 0.1236 ± 0.0016 W/m/K
202.97 K, 21421 kPa | 0.1236 ± 0.0016 W/m/K
202.97 K, 27152 kPa | 0.1247 ± 0.0016 W/m/K
202.97 K, 27157 kPa | 0.1247 ± 0.0016 W/m/K
202.98 K, 27682 kPa | 0.1253 ± 0.0016 W/m/K
202.98 K, 33690 kPa | 0.1266 ± 0.0016 W/m/K
202.99 K, 306 kPa | 0.1193 ± 0.0015 W/m/K
202.99 K, 337 kPa | 0.1194 ± 0.0015 W/m/K
202.99 K, 27679 kPa | 0.1252 ± 0.0016 W/m/K
202.99 K, 33685 kPa | 0.1265 ± 0.0016 W/m/K
203 K, 40148 kPa | 0.1278 ± 0.0016 W/m/K
203 K, 46783 kPa | 0.1289 ± 0.0016 W/m/K and 0.129 ± 0.0016 W/m/K
203 K, 53771 kPa | 0.1302 ± 0.0016 W/m/K
203 K, 53775 kPa | 0.1301 ± 0.0016 W/m/K
203 K, 60661 kPa | 0.1314 ± 0.0017 W/m/K
203 K, 60670 kPa | 0.1314 ± 0.0017 W/m/K
203 K, 67499 kPa | 0.1327 ± 0.0017 W/m/K
203 K, 67521 kPa | 0.1326 ± 0.0017 W/m/K
203.01 K, 40146 kPa | 0.1276 ± 0.0016 W/m/K
203.32 K, 4769 kPa | 0.1202 ± 0.0015 W/m/K
203.32 K, 4775 kPa | 0.1202 ± 0.0015 W/m/K
203.33 K, 10125 kPa | 0.1214 ± 0.0015 W/m/K
203.33 K, 10131 kPa | 0.1214 ± 0.0015 W/m/K
203.34 K, 15898 kPa | 0.1226 ± 0.0016 W/m/K
203.35 K, 15840 kPa | 0.1227 ± 0.0016 W/m/K
203.39 K, 27154 kPa | 0.1246 ± 0.0016 W/m/K
203.39 K, 27157 kPa | 0.1243 ± 0.0016 W/m/K
203.4 K, 21419 kPa | 0.1235 ± 0.0016 W/m/K
203.4 K, 33699 kPa | 0.1263 ± 0.0016 W/m/K
203.4 K, 67478 kPa | 0.1323 ± 0.0017 W/m/K
203.41 K, 27689 kPa | 0.1252 ± 0.0016 W/m/K
203.41 K, 33685 kPa | 0.1264 ± 0.0016 W/m/K
203.41 K, 46771 kPa | 0.1289 ± 0.0016 W/m/K
203.41 K, 46773 kPa | 0.1287 ± 0.0016 W/m/K
203.41 K, 53771 kPa | 0.1302 ± 0.0016 W/m/K
203.41 K, 53772 kPa | 0.1301 ± 0.0016 W/m/K
203.41 K, 60658 kPa | 0.1313 ± 0.0017 W/m/K
203.41 K, 60664 kPa | 0.1315 ± 0.0017 W/m/K
203.41 K, 67491 kPa | 0.1325 ± 0.0017 W/m/K
203.42 K, 40141 kPa | 0.1277 ± 0.0016 W/m/K
203.42 K, 40147 kPa | 0.1276 ± 0.0016 W/m/K
203.43 K, 372 kPa | 0.119 ± 0.0015 W/m/K
203.43 K, 393 kPa | 0.1193 ± 0.0015 W/m/K
203.83 K, 67450 kPa | 0.1325 ± 0.0017 W/m/K
203.83 K, 67465 kPa | 0.1324 ± 0.0017 W/m/K
203.84 K, 53769 kPa | 0.13 ± 0.0016 W/m/K
203.84 K, 60649 kPa | 0.1313 ± 0.0017 W/m/K and 0.1311 ± 0.0017 W/m/K
203.85 K, 27696 kPa | 0.1251 ± 0.0016 W/m/K
203.85 K, 33690 kPa | 0.1263 ± 0.0016 W/m/K
203.85 K, 33700 kPa | 0.1263 ± 0.0016 W/m/K
203.85 K, 46765 kPa | 0.1288 ± 0.0016 W/m/K
203.85 K, 46774 kPa | 0.1288 ± 0.0016 W/m/K
203.85 K, 53757 kPa | 0.13 ± 0.0016 W/m/K
203.86 K, 27682 kPa | 0.125 ± 0.0016 W/m/K
203.86 K, 40135 kPa | 0.1275 ± 0.0016 W/m/K
203.86 K, 40141 kPa | 0.1276 ± 0.0016 W/m/K
221.72 K, 250 kPa | 0.1129 ± 0.0014 W/m/K
221.72 K, 251 kPa | 0.113 ± 0.0014 W/m/K
221.73 K, 4830 kPa | 0.1143 ± 0.0014 W/m/K
221.73 K, 4854 kPa | 0.1145 ± 0.0015 W/m/K
221.74 K, 10031 kPa | 0.1155 ± 0.0015 W/m/K
221.75 K, 10011 kPa | 0.1159 ± 0.0015 W/m/K
221.76 K, 15754 kPa | 0.1169 ± 0.0015 W/m/K
221.76 K, 15760 kPa | 0.1169 ± 0.0015 W/m/K
221.77 K, 21259 kPa | 0.1183 ± 0.0015 W/m/K
221.77 K, 21264 kPa | 0.1188 ± 0.0015 W/m/K
221.78 K, 27420 kPa | 0.1202 ± 0.0015 W/m/K
221.78 K, 27443 kPa | 0.1204 ± 0.0015 W/m/K
222 K, 39755 kPa | 0.1236 ± 0.0016 W/m/K
222 K, 39756 kPa | 0.1236 ± 0.0016 W/m/K
222 K, 47190 kPa | 0.1252 ± 0.0016 W/m/K
222.01 K, 47202 kPa | 0.1258 ± 0.0016 W/m/K
222.01 K, 54322 kPa | 0.1269 ± 0.0016 W/m/K
222.01 K, 54323 kPa | 0.1269 ± 0.0016 W/m/K
222.02 K, 61325 kPa | 0.1285 ± 0.0016 W/m/K
222.02 K, 61363 kPa | 0.1286 ± 0.0016 W/m/K
222.02 K, 67941 kPa | 0.1302 ± 0.0016 W/m/K
222.02 K, 67960 kPa | 0.13 ± 0.0016 W/m/K
222.09 K, 253 kPa | 0.1125 ± 0.0014 W/m/K
222.09 K, 4859 kPa | 0.1139 ± 0.0014 W/m/K
222.09 K, 4863 kPa | 0.1139 ± 0.0014 W/m/K
222.1 K, 247 kPa | 0.1124 ± 0.0014 W/m/K
222.11 K, 10038 kPa | 0.1155 ± 0.0015 W/m/K
